Test system: mixed culture consortium of three root canal isolates, E. faecalis, L. salivarius and S. gordonii
Assay: biofilm formation in mini-flow chamber system, CSLM with LIVE/DEAD staining
Format: cell-based
Experimental: First, a microbial consortium was created using bacterial strains, E. faecalis, L. salivarius and S. gordonii which were isolated from endodontic therapy associated with persistent infections. The strains were stored at −70° C. using skim milk powder (Oxoid, Cambridge, United Kingdom), diluted in double distilled water and were recovered on blood agar in an atmosphere of 5% CO2 in hydrogen at 37° C. for 24 hours. Then, four to five colonies of each strain were transferred into liquid growth medium (Todd-Hewitt broth) and incubated in an atmosphere of 5% CO2 in hydrogen at 37° C. The optical densities (OD600) of the liquid cultures were monitored until exponential growth was reached, that is, until OD600 values of 0.6±0.1. The cells were harvested by centrifugation (3000 g, five minutes at 4° C.), washed in 10 mM PBS and re-suspended in Todd-Hewitt broth to an approximate cell concentration of 1×108 ml^−1. […]
Then, the mini-flow chamber biofilms were inspected. […] CSLM images were analyzed in 2 and 3-D by using the software bioimage_L. […]
Each experiment was repeated three times and the statistical analysis was performed by two-way analysis of variance (ANOVA). Two-way ANOVA detected any significant variation among biofilms formed on surfaces pre-conditioned with the composition according to the present invention, NaOCl and the uncoated controls. […]

[Na+].[O-]Cl [NaOCl]
viability of biofilm cells (LIVE/DEAD staining) (all tests, proportions of green-viable cells): not compromised | biovolume of biofilms relative to composition-preconditioned surfaces and uncoated controls (preconditioned surfaces): intermediate
